Experimental data taken from patent US20240393292A1, “ALLERGY ANTIGEN AND EPITOPE THEREOF” (HOYU CO., LTD., priority 2019, published 2024).

Key:
[1] = tested on: IgE antibodies from patients; assay: Wheat epitope mapping (3): alanine/glycine scanning; assay type: binding, human; conditions: from analysis of epitope mapping (A) to (C); many samples
Experimental: From the amino acid sequences identified above in (A), a library of peptide fragments in which amino-terminal amino acids were substituted one by one by alanine (or glycine when the original amino acid was alanine) according to a technique called alanine/glycine scanning (Non Patent Literature 5) was prepared by the same technique as described above. The presence or absence of binding of an IgE antibody present in the serum of a patient to each peptide fragment was measured by the same technique as described above.
Chemiluminescence intensity in images obtained by measurement was converted into a numeric value in the same manner as in (A). Numeric values determined from images obtained from secondary antibody measurement values were used as control values. The control value of each peptide was subtracted from numeric values determined from images obtained from results about the serum of 49 patients. When values obtained using the sequences (SEQ ID NOs: 29, 131, 191, 281, 346, 414, 493, 562, 640, 706, 776, 899, 974, 1010, 1089, 1142, 1166, 1209, 1257, 1297, 1367, 1403, 1508, 1566, 1598, 1608, 1685, 1753, 1789, 1836, 1895, 1977, 2004, 2027, 2068, 2154, 2217, 2265, 2309, 2342, 2419, 2491, 2545, 2613, 2631, 2674, 2701, 2774, 2809 and 2830) serving as the basis of alanine/glycine scanning were defined as 100%, it was determined that: a peptide having a value of the difference that was less than 30% had no binding activity against IgE antibodies; a peptide having a value of the difference that was 30% or more and less than 50% had binding activity, albeit poor, against IgE antibodies; a peptide having a value of the difference that was 50% or more and less than 70% had binding activity, albeit somewhat poor, against IgE antibodies; and a peptide having a value of the difference that was 70% or more had equivalent or good binding activity against IgE antibodies and was thus a peptide had remaining binding activity against IgE antibodies.
By analysis of the results of (A) to (C), common sequences important for exertion of original antigenicity were found in regions important for binding to IgE antibodies from patients, in the sequences serving as the basis of alanine/glycine scanning.

[2] = tested on: IgE antibody in the serum of a wheat-allergic patient; assay: Immunoblotting of two-dimensional electrophoresis pattern of wheat proteins with patient serum; assay type: binding, human; conditions: immunoblot of 2D electrophoresis; compared with serum of non-wheat-allergic subject
Experimental: Identification of antigens by immunoblotting was carried out by taking all the steps up to the step of “Second-dimensional SDS-PAGE” as described above in Example 1, followed by the steps of “Transfer to membrane”, “Immunoblotting” and “Analysis” as described below.
Transfer to membrane was done using the following transfer system and transfer buffer. • Transfer system: XCell SureLock Mini-Cell and XCell II Blot Module (produced by Life Technologies) • Transfer buffer: NuPAGE Transfer Buffer (×20) (produced by Life Technologies), used in a form diluted […] with milliQ water. […]
The immunoblots obtained with the serum from the wheat-allergic patient were compared with those obtained with the control serum from the non-wheat-allergic subject. For protein present in wheat, in immunoblotting using the serum from the wheat-allergic patient, 16 spots were detected (FIG. 2), which are different from the spots detected when the serum of the non-wheat-allergic subject was used and different from those of the known wheat allergen proteins. […]

specific binding of IgE antibody in serum of wheat-allergic patient to protein spot [2] | Molecule | short polypeptide confirmed as epitope binding to IgE antibodies [1]
– | QPIQ (REGION 1..4: note = epitope) [SEQ ID NO: 30] | confirmed as epitopes binding to IgE antibodies in many samples
– | SEQ ID NO: 58: polypeptide consisting of 4 amino acid residues, among sequences of (E1) (PIQQ; REGION 1..4: note = epitope) | confirmed as epitopes binding to IgE antibodies in many samples
– | SEQ ID NO: 61: polypeptide consisting of 4 amino acid residues, among sequences of (E1) (QPIQ; REGION 1..4: note = epitope) | confirmed as epitopes binding to IgE antibodies in many samples
– | SEQ ID NO: 222: polypeptide consisting of 4 amino acid residues, among sequences of (E3) (QQPF; REGION 1..4: note = epitope) | confirmed as epitopes binding to IgE antibodies in many samples
– | SEQ ID NO: 238: polypeptide consisting of 4 amino acid residues, among sequences of (E3) (PFPQ; REGION 1..4: note = epitope) | confirmed as epitopes binding to IgE antibodies in many samples
– | SEQ ID NO: 345: polypeptide consisting of 4 amino acid residues, among sequences of (E4) (QPFP; REGION 1..4: note = epitope) | confirmed as epitopes binding to IgE antibodies in many samples
binding to IgE antibodies was confirmed | Globulin 3 (protein, listed as Triticum aestivum, posttranslational modification, same protein as spot 12, differing posttranslational modification) MATRARVTIPLLFLLGTSLLFAAAVSASHDEEEDRRGGRSLQQCVQRCQQDRPRYSHARCVQECRDDQQQHGRHEQEEQGRGHGRHGEGEREEEQGRGRGRHGQGEREEEQGRGRGRRGEGERDEEHGDGRRPYVFGPRSFRRIIRSDHGFVKALRPFDEVSRLLRGIRNYRVAIMEVNPRAFVVPGLTDADGVGYVAQGEGVLTVIENGEKRSYTVRQGDVIVAPAGSIMHLANTDGRRKLVIAKILHTISVPGKFQYFSAKPLLASLSKRVLTAALKTSDERLGSLLGSRQGKEEEEKSISIVRASEEQLRELRRQASEGDQGHHWPLPPFRGDSRDTFNLLEQRPKIANRHGRLYEADARSFHALAQHDVRVAVANITPGSMTAPYLNTQSFKLAVVLEGEGEVEIVCPHLGRDSERREQEHGKGRWRSEEEEDDRRQQRRRGSGSESEEEQDQQRYETVRARVSRGSAFVVPPGHPVVEIASSRGSSNLQVVCFEINAERNERVWLAGRNNVIAKLDDPAQELTFGRPAREVQEVFRAKDQQDEGFVAGPEQQQEHERGDRRRGDRGRGDEAVEAFLRMATAAL | –
binding to IgE antibodies was confirmed | Gamma-gliadin (protein, listed as Triticum aestivum, posttranslational modification, same protein as spot 16, differing posttranslational modification) MKIFMVFALLVASTTITTATAQLDPRIHDQERPQQSFLQQQPLIQQQPYPPQEPQQPLFPQKEPQQPFPLQQPQYQQQQPYPQQPLPQEQLPQQHLFPQQPPQQQFPQQMPLPHQQQTFPQQQQQQQQQEQLPQQLPQFPQQQPFSQYQQPLTQQPYSQEQPLPQQQPSVEEKQQLNLCKEFLLQQCNPEEKLSLLQSVIPFLRPKTSQQNSCQLKRLQCCRQLAHISEPSRCPAIHNIVHAIVMQQQHVDRGFGQPQPQQLGQEMPMQPQHQLGQHSILPQQLAQYKLVRLLVIQTLPMLCNVHVPSDCYTITAPFGSMTAYNGGQ | –
